# Test results reported in patent US7402399B2, “Receptor tyrosine kinase signaling pathway analysis for diagnosis and therapy” (Monogram BioSciences, Inc., priority 2003, dated 2008).
# Key:
# Her2-Her3 heterodimers = target: T1, Her2-Her3 heterodimers (Homo sapiens, UniProt P04626+P21860); assay: eTag assay of cell lysates for Her2-Her3 heterodimers after ligand stimulation; type: cell-based; details: MCF-7 cells, increasing ligand concentrations (0-100 nM), 10 minutes at 37° C.
# T1 construct: endogenous in cells; host or cells: MCF-7
# Protocol: Measurements are made using three binding compounds and a cleaving probe as described below.
# • 1. Serum-starve breast cancer cell line culture overnight before use. • 2. […] Aspirate culture media, transfer onto ice, and add lysis buffer to lyse cells in situ. • 4. Scrape and transfer lysate to microfuge tube. Incubate on ice for 30 min. Microfuge at 14,000 rpm, 4° C., for 10 min. (Centrifugation is optional.) • 5. Collect supernatants as lysates and aliquot for storage at −80° C. until use. Assay: Assay design: As illustrated diagrammatically in FIG. 4A, Her2-Her3 heterodimers (900) are quantified ratiometrically based on the binding of cleaving probe (902) and binding compounds (904), (906), and (908). A photosensitizer indicated by “PS” is attached to cleaving probe (902) via an avidin-biotin linkage, and binding compounds (904), (906), and (908) are labeled with molecular tags Pro4, Pro10, and Pro 11, respectively. Binding compound (904) is specific for a phosphorylation site on Her3. The total assay volume is 40 ul. The lysate volume is adjusted to 30 ul with lysis buffer. […]
# Data Analysis: • 3. Normalize relative fluorescence units (RFU) signal of each molecular tag against CE reference standard A315 (a fluorescein-derivatized deoxyadenosine monophosphate that has known peak position relative to molecular tags from the assay upon electrophoretic separation). • 4. […]
# Her1 phosphorylation = assay: eTag assay of cell lysates for Her1 receptor phosphorylation; type: cell-based, human; details: BT-20 cells, increasing EGF concentration
# Protocol: Sample preparation was carried out essentially as described in Example 2.
# Assay design: A monoclonal antibody specific to the receptor is separately conjugated with either a molecular tag or biotin (that is then linked to a photosensitizer via an avidin bridge), so that the cleaving probe and a binding compound compete to bind to the same epitope in this example. Another binding compound is used that consists of a second anibody recognizing an […] epitope on the receptor, so that a ratiometric signal can be generated as a measure of homodimerization. The signal derived from the second antibody also provides a measure of the total amount of receptor in a sample. The total amount of receptor is determined in a separate assay well. Receptor phosphorylation can be quantified together with either homodimerization or total receptor amount.
# Procedure: The assay volume is 40 ul and the general procedure is similar to that of Example 2. Two assay wells, A and B, are set up for each sample to quantify homodimerization and total amount of receptor separately. […]
# [1] = test system: intracellular phosphorylated tyrosine (Her receptor phosphorylation); assay: eTag assay of formalin fixed paraffin embedded cell pellets for receptor phosphorylation; type: cell-based, human; details: 100 nM EGF vs non-stimulated
# Protocol: In this example, model fixed tissues made from pelleted cell lines were assayed for the presence of Her receptor dimers. The assay design for heterodimers was essentially the same as that described in FIG. 4A, with exceptions as noted below. That is, four components are employed: (i) a cleaving probe comprising a biotinylated monoclonal antibody conjugated to a cleavage-inducing moiety (in this example, a photosensitizer-derivatized streptavidin, as illustrated in FIG. 3E) and specific for one of the receptors of the dimer, (ii) a monoclonal antibody derivatized with a first molecular tag and specific for the same receptor as the cleaving probe, (iii) a monoclonal antibody derivatized with a second molecular tag and specific for the receptor opposite to that the cleaving probe is specific for, and (iv) a monoclonal antibody derivatized with a third molecular tag and specific for an intracellular phosphorylated tyrosine. The assay design for homodimers was essentially the same as that described in FIG. 1D, with exceptions as noted below.
# In each case, model fixed tissues were prepared as follows: cells grown on tissue culture plates were stimulated with either EGF or HRG as described in the prior examples, after which they were washed and removed by scrapping. […]
substance,measurement,setting,value
"EGF: epidermal growth factor, ligand used to stimulate cell lines",quantity of Her2-Her3 heterodimers,Her2-Her3 heterodimers,essentially no change
same,quantity of Her1 phosphorylation,Her1 phosphorylation,increases
same,Her receptor phosphorylation,[1]; fixed pellets of 22Rv1 cells,up-regulation
same,intracellular phosphorylation,[1]; fixed pellets of MDA-MB468 cells,increases
